According to patent US8637702B2, “Derivatives of N-hydroxybenzamide for treating HIV infections” (Italfarmaco S.p.A., priority 2009, dated 2014):

Columns and labels:
[1] = system: HIV-1 expression in ACH-2 cells; experiment: Induction of the HIV-1 expression in the ACH-2 cell line (p24); assay type: cell-based; settings: 24 hours
Description: ACH2 cells were obtained through AIDS Research and Reference Reagent Program, Division of AIDS, National Institute of Allergy and Infectious Diseases, National Institutes of Health, Bethesda, Md. The cells were cultured in flasks, washed in RPMI and resuspended in RPMI/10% FCS at a concentration of 2×10^6 cells/mL. […] After 24 hours of incubation at 37° C./5% CO2, 50 μL of supernatant were removed for the cytotoxicity assay of the lactate dehydrogenase (LDH) and Triton-X-100 (0.5% vol/vol final concentration) were added to each culture. The p24 assays of the lysates were performed immediately.
p24 was measured using specific antibodies immobilized on magnetic beads as previously described [Nold M. F. et al. J. Immunol. […] The levels of p24 for each experiment without HDAC inhibitors were fixed at 1.0 and the increase values by the number of times for each experiment and each analogous were calculated.

HDAC9 = HDAC9 (Homo sapiens, UniProt Q9UKV0); experiment: Inhibition of histone deacetylase isoforms, HDAC9
Description: (§1) Recombinant human enzymes were acquired from BPS Biosciences (CA, USA). Isoforms of Class I HDAC1, 2, 3; HDAC6, 10 of Class IIb and Class IV HDAC11 were tested using the Fluor-de-Lys fluorogenic synthetic substrate (Enzo Life Sciences, Plymouth Meeting, Pa.). […] Each inhibitor was dissolved in DMSO and then further diluted in an assay buffer. […] The assays were performed by pre-incubating each enzyme with the inhibitors for 15 minutes at 37° C. The reaction was started by adding the substrate at 37° C. and allowed to proceed for 60 minutes. The fluorescent signal was generated by adding 50 μL of a twice concentrated developer solution 2 (Enzo) containing trichostatin A 4 μM.

HDAC4 = HDAC4 (Homo sapiens, UniProt P56524); experiment: Inhibition of histone deacetylase isoforms, HDAC4
Description: as §1

HDAC10 = molecular target: T1, HDAC10 (Homo sapiens, UniProt Q969S8); experiment: Inhibition of histone deacetylase isoforms, HDAC10
T1 sequence (Q969S8 1-669): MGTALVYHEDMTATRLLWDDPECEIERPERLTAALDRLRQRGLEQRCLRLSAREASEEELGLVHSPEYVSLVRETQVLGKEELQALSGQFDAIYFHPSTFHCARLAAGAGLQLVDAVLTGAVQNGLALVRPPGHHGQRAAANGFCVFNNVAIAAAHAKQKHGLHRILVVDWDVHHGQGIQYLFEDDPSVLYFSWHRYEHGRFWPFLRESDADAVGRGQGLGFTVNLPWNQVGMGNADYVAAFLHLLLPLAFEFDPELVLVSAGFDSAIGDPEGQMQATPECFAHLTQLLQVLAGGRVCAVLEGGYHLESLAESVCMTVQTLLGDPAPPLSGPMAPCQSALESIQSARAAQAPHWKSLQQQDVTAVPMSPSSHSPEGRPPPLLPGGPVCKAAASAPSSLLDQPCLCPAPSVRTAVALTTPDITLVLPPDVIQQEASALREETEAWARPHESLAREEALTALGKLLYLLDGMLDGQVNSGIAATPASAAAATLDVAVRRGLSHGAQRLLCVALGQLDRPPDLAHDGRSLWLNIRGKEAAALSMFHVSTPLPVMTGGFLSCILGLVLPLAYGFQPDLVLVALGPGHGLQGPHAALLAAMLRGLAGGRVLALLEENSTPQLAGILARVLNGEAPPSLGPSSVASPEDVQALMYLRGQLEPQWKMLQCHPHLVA
Description: as §1

[2] = Monzani et al., EUROTOX 2007; cited from earlier work
[3] = 400 mg/day, Zolinza package leaflet; cited from earlier work
bacteria = settings: in vitro, Zolinza package leaflet; cited from earlier work
[4] = system: micronucleated erythrocytes; settings: administered to mice, Zolinza package leaflet; cited from earlier work
latent HIV reservoir = settings: combined with HAART, clinical studies; cited from earlier work

Sequence of HDAC9 (Q9UKV0 whole entry, canonical isoform): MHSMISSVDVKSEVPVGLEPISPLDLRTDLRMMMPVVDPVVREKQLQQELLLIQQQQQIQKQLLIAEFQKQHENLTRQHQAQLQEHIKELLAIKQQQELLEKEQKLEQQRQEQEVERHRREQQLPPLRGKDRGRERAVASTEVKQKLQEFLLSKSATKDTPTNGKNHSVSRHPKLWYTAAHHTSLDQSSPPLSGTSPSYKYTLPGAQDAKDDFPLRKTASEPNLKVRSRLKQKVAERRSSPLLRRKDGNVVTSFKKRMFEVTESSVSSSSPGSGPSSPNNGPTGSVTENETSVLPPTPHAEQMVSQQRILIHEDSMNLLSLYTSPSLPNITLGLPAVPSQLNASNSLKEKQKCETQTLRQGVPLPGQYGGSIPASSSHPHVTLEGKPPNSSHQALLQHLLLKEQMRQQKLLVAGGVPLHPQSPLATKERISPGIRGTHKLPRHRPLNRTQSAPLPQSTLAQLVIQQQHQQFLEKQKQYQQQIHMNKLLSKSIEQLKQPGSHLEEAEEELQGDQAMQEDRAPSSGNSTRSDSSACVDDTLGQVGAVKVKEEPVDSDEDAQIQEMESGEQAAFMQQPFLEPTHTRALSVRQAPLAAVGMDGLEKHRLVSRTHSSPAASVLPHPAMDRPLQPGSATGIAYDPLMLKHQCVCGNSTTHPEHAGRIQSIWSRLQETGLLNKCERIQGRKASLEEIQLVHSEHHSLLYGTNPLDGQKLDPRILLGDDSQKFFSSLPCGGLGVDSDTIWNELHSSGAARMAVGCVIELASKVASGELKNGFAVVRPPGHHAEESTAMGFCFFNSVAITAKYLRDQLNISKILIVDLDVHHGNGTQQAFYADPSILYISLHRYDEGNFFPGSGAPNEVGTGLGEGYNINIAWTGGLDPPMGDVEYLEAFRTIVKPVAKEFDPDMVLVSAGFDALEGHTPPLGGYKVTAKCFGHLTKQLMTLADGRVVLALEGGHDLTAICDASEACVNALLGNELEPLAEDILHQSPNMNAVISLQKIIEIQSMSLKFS
Sequence of HDAC4 (P56524 whole entry, canonical isoform): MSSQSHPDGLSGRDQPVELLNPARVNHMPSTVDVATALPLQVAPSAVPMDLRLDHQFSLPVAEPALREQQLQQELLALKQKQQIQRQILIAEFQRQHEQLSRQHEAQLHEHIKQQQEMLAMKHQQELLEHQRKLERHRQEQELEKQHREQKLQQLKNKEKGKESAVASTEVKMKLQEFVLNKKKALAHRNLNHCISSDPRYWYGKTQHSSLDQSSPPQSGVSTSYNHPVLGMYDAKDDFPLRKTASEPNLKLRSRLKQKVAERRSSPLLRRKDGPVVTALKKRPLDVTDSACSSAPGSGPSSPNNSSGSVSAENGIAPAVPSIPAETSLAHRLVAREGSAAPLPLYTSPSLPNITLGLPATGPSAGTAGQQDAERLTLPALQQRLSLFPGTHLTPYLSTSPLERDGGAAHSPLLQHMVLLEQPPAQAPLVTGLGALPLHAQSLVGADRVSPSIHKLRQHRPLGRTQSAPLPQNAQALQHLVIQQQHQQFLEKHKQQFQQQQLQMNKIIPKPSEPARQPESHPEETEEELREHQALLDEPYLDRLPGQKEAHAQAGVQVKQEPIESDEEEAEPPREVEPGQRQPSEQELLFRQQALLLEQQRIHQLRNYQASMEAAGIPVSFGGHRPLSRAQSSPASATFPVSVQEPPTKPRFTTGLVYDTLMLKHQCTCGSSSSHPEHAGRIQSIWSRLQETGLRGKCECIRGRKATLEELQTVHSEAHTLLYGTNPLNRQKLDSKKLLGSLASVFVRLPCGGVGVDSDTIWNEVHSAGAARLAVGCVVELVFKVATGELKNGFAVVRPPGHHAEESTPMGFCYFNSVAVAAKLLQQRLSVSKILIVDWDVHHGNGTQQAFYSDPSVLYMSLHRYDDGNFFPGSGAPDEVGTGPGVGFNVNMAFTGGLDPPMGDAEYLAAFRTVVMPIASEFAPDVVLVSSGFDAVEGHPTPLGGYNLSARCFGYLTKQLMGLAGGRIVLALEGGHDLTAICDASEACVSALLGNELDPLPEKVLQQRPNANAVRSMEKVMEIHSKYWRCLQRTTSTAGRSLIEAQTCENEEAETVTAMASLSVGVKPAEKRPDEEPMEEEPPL

SMILES: CCN(CC)Cc1ccc2cc(COC(=O)Nc3ccc(C(=O)NO)cc3)ccc2c1.Cl [ITF2357, Diethyl-[6-(4-hydroxycarbamoyl-phenylcarbamoyloxymethyl)-naphtalen-2-yl-methyl]ammonium chloride]
- increase of the number of times in the level of p24 with respect to control ([1]; 31 nM): 1 times
- increase of the number of times in the level of p24 with respect to control ([1]; 63 nM): 1 times
- increase of the number of times in the level of p24 with respect to control ([1]; 125 nM): 2 times
- increase of the number of times in the level of p24 with respect to control ([1]; 250 nM): 15 times
- IC50 (HDAC9): 518 nM
- IC50 (HDAC4): 724 nM
- IC50 (HDAC10): 351 nM
- mutagenicity [2]: non-mutagenic

SMILES: O=C(CCCCCCC(=O)Nc1ccccc1)NO [SAHA]
- adverse effects in patients [3]: numerous, serious adverse effects such as diarrhoea, tiredness, nausea, thrombocytopenia, anorexia and dysgeusia
- mutagenicity in bacterial back-mutation assays (Ames test) (bacteria): mutagenic
- incidence of micronucleated erythrocytes [4]: increases the incidence of micronucleated erythrocytes

SMILES: CCCC(CCC)C(=O)O [VPA, Valproic acid]
- diminution of the latent reservoir (latent HIV reservoir): without leading to any considerable diminution of the latent reservoir
